Publication PMC5999399 (Journal of medicinal chemistry, 2017)

What was measured:
human MC1R (hMC1R) [1] = target: T1, human MC1R (hMC1R) (Homo sapiens, UniProt Q01726); conditions: [125I]NDP-α-MSH displacement at 10 μM; ref previously published data; cited from earlier work
human MC1R (hMC1R) [2] = target: T1, human MC1R (hMC1R); conditions: cAMP at 10 μM, in relation to MT-II; ref previously published data; cited from earlier work
human MC3R (hMC3R) [3] = target: T2, human MC3R (hMC3R) (Homo sapiens, UniProt P41968); conditions: [125I]NDP-α-MSH displacement at 10 μM; ref previously published data; cited from earlier work
T2 sequence (P41968 whole entry): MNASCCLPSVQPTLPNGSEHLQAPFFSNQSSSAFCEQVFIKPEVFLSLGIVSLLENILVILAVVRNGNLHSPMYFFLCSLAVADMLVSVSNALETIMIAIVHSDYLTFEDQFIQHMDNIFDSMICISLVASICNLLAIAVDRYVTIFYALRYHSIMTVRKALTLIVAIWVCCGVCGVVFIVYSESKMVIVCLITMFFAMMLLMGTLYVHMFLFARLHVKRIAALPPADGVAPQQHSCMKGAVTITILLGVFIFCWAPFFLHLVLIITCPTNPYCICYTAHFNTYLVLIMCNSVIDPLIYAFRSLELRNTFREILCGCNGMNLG

human MC3R (hMC3R) [4] = target: T2, human MC3R (hMC3R); conditions: ref previously published data, cited from earlier work; for hMC3R % max effect: cAMP at 10 μM, in relation to MT-II
human MC5R (hMC5R) [5] = target: T3, human MC5R (hMC5R) (Homo sapiens, UniProt P33032); conditions: ref previously published data, cited from earlier work; for hMC5R % BE: [125I]NDP-α-MSH displacement at 10 μM
T3 sequence (P33032 whole entry): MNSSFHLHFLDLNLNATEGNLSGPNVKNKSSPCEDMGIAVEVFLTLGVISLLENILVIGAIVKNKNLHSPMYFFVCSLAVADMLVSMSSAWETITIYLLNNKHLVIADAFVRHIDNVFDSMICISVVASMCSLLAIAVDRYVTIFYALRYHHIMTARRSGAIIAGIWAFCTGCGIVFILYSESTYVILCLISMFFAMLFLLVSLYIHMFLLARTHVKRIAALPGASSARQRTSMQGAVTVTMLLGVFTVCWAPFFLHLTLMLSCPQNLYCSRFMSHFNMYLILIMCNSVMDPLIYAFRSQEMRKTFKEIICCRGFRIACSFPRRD

human MC5R (hMC5R) [6] = target: T3, human MC5R (hMC5R); conditions: cAMP at 10 μM, in relation to MT-II; ref previously published data; cited from earlier work
human MC4R (hMC4R) [7] = target: T4, human MC4R (hMC4R) (Homo sapiens, UniProt P32245); conditions: [125I]NDP-α-MSH displacement at 10 μM; ref previously published data; cited from earlier work
T4 sequence (P32245 whole entry): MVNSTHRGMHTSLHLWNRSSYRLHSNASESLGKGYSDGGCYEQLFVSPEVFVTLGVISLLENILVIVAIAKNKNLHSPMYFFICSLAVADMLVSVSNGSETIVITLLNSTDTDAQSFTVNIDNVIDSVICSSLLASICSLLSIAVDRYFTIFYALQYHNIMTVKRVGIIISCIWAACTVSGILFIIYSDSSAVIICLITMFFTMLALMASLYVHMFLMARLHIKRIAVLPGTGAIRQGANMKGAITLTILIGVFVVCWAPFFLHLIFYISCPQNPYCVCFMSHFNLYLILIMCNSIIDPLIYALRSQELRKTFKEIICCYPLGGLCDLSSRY

human MC4R (hMC4R) [8] = target: T4, human MC4R (hMC4R); conditions: cAMP at 10 μM, in relation to MT-II; ref previously published data; cited from earlier work
human MC1R (hMC1R) [9] = target: T1, human MC1R (hMC1R); experiment: Adenylate cyclase; assay type: cell-based; conditions: EC50 ratio

T1 sequence (Q01726 whole entry): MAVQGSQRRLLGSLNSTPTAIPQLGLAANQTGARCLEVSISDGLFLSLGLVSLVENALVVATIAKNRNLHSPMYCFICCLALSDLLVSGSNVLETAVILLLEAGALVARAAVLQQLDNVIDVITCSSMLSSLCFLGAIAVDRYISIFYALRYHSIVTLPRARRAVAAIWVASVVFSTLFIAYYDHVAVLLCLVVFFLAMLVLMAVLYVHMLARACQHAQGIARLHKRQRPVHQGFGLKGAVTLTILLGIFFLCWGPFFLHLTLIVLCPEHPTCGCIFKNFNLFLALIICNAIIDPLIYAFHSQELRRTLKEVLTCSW

Substance | hMC1R % BE (human MC1R (hMC1R) [1]) | hMC1R % max effect (human MC1R (hMC1R) [2]) | hMC3R % BE (human MC3R (hMC3R) [3]) | hMC3R % max effect (human MC3R (hMC3R) [4]) | hMC5R % BE (human MC5R (hMC5R) [5]) | hMC5R % max effect (human MC5R (hMC5R) [6]) | hMC4R % BE (human MC4R (hMC4R) [7]) | hMC4R % max effect (human MC4R (hMC4R) [8]) | EC50 (human MC3R (hMC3R) [4]; read-out: hMC3R EC50, cAMP accumulation) | IC50 (human MC5R (hMC5R) [5]; read-out: hMC5R IC50, 50% specific binding) | increase in potency to hMC1R compared to γ-MSH (human MC1R (hMC1R) [9])
Ac-Ser-Tyr-Ser-Met-Glu-His-Phe-Arg-Trp-Gly-Lys-Pro-Val-NH2 [Compound 14] | 100% | 100% | 100% | 100% | 100% | 100% | – | – | – | – | –
Ac-Tyr^1-Val^2-Nle^3-Gly^4-His^5-D-Phe^6-Arg^7-Trp^8-Asp^9-Arg^10-Phe^11-Gly^12-NH2 [Compound 13] | 100% | 100% | 100% | – | 100% | 100% | 100% | 100% | – | – | –
H-Tyr-Val-Nle-Gly-His-D-Nal(2)-Arg-D-Trp-Asp-Arg-Phe-Gly-NH2 [Compound 1] | – | – | 100% | 6% | 100% | 6% | – | – | 300 ± 6 nM | 3.5 ± 0.5 nM | –
H-Tyr^1-Val^2-Met^3-Gly^4-His^5-Phe^6-Arg^7-Trp^8–Asp^9-Arg^10-Phe^11-Gly^12-NH2 [Compound 12] | 100% | 100% | 100% | – | 100% | – | 100% | 76% | – | – | 3 fold
